Measured values from article PMC4522657, “Identification of a DYRK1A Inhibitor that Induces Degradation of the Target Kinase using Co-chaperone CDC37 fused with Luciferase nanoKAZ” (Scientific Reports, 2015).

Assays:
Assay in all cases: Kinase panel, CaNDY 1 µM
Assay type in all cases: biochemical
Details in all cases: CaNDY 1 µM relative to DMSO
ABL(T315I) = target: T1, ABL(T315I) (Homo sapiens, UniProt P00519, T315I)
T1 construct: purchased Carna Biosciences
Description: (§1) Detailed information on the assay conditions is available on the website of Carna Biosciences (http://www.carnabio.com/english/index.html; Kobe, Japan). In brief, full-length human recombinant kinases were expressed using a baculovirus expression system as amino-terminal GST-fusion proteins, and purified by glutathione-Sepharose chromatography. The GenBank accession numbers of DYRK1A, DYRK1B, DYRK2, and DYRK3 were NP_001387.2, NP_004705.1, NP_003574.1, and NP_003573.2. Kinase activities were evaluated by Off-chip Mobility Shift Assay after reaction of 1 μM of the substrate DYRKtide-F with ATP (25 μM for DYRK1A, 50 μM for DYRK1B, 10 μM for DYRK2, and 5 μM for DYRK3). For each compound, a DMSO solution was diluted in assay buffer to yield a final concentration of 1% DMSO. After incubation for one hour at room temperature, substrate phosphorylation was analyzed by electrophoretic separation of the substrate and products using a Caliper LC3000 platform (Caliper Life Sciences, Mountain View, CA, USA). The phosphorylated product (P)/(P + substrate) ratio was calculated at each concentration of each small molecule and the percent inhibition was expressed relative to a control assay in the absence of the small molecule. […] The IC50 of each compound was calculated by interpolation on a log-concentration-response curve fitted with a four-parameter logistic equation.
(§2) All kinase assays were carried out at Carna Biosciences. The inhibitory map was made with Kinome Render[36].

NEK9 = target: T2, NEK9 (Homo sapiens, UniProt Q8TD19)
T2 construct: purchased Carna Biosciences
Description: as §1, §2

CDK7/CycH/MAT1 = target: T3, CDK7/CycH/MAT1 (Homo sapiens, UniProt P50613)
T3 construct: purchased Carna Biosciences
Description: as §1, §2

PKR = target: T4, PKR (Homo sapiens, UniProt P19525)
T4 construct: purchased Carna Biosciences
Description: as §1, §2

EPHB2 = target: T5, EPHB2 (Homo sapiens, UniProt P29323)
T5 construct: purchased Carna Biosciences
Description: as §1, §2

PASK = target: T6, PASK (Homo sapiens, UniProt Q96RG2)
T6 construct: purchased Carna Biosciences
Description: as §1, §2

MARK2 = target: T7, MARK2 (Homo sapiens, UniProt Q7KZI7)
T7 construct: purchased Carna Biosciences
Description: as §1, §2

CSK = target: T8, CSK (Homo sapiens, UniProt P41240)
T8 construct: purchased Carna Biosciences
Description: as §1, §2

KIT = target: T9, KIT (Homo sapiens, UniProt P10721)
T9 construct: purchased Carna Biosciences
Description: as §1, §2

MAP2K3_Cascade = target: T10, MAP2K3_Cascade (Homo sapiens, UniProt P46734)
T10 construct: purchased Carna Biosciences
Description: as §1, §2

PKCι = target: T11, PKCι (Homo sapiens, UniProt P41743)
T11 construct: purchased Carna Biosciences
Description: as §1, §2

CaMK2δ = target: T12, CaMK2δ (Homo sapiens, UniProt Q13557)
T12 construct: purchased Carna Biosciences
Description: as §1, §2

CK1γ3 = target: T13, CK1γ3 (Homo sapiens, UniProt Q9Y6M4)
T13 construct: purchased Carna Biosciences
Description: as §1, §2

MAPKAPK2 = target: T14, MAPKAPK2 (Homo sapiens, UniProt P49137)
T14 construct: purchased Carna Biosciences
Description: as §1, §2

BRSK1 = target: T15, BRSK1 (Homo sapiens, UniProt Q8TDC3)
T15 construct: purchased Carna Biosciences
Description: as §1, §2

BMX = target: T16, BMX (Homo sapiens, UniProt P51813)
T16 construct: purchased Carna Biosciences
Description: as §1, §2

MET(Y1235D) = target: T17, MET(Y1235D) (Homo sapiens, UniProt P08581, Y1235D)
T17 construct: purchased Carna Biosciences
Description: as §1, §2

IGF1R = target: T18, IGF1R (Homo sapiens, UniProt P08069)
T18 construct: purchased Carna Biosciences
Description: as §1, §2

PKN1 = target: T19, PKN1 (Homo sapiens, UniProt Q16512)
T19 construct: purchased Carna Biosciences
Description: as §1, §2

FES = target: T20, FES (Homo sapiens, UniProt P07332)
T20 construct: purchased Carna Biosciences
Description: as §1, §2

AXL = target: T21, AXL (Homo sapiens, UniProt P30530)
T21 construct: purchased Carna Biosciences
Description: as §1, §2

MAP2K1_Cascade = target: T22, MAP2K1_Cascade (Homo sapiens, UniProt Q02750)
T22 construct: purchased Carna Biosciences
Description: as §1, §2

HER4 = target: T23, HER4 (Homo sapiens, UniProt Q15303)
T23 construct: purchased Carna Biosciences
Description: as §1, §2

RSK2 = target: T24, RSK2 (Homo sapiens, UniProt P51812)
T24 construct: purchased Carna Biosciences
Description: as §1, §2

EPHA1 = target: T25, EPHA1 (Homo sapiens, UniProt P21709)
T25 construct: purchased Carna Biosciences
Description: as §1, §2

NuaK1 = target: T26, NuaK1 (Homo sapiens, UniProt O60285)
T26 construct: purchased Carna Biosciences
Description: as §1, §2

SIK = target: T27, SIK (Homo sapiens, UniProt P57059)
T27 construct: purchased Carna Biosciences
Description: as §1, §2

PDGFRα(V561D) = target: T28, PDGFRα(V561D) (Homo sapiens, UniProt P16234, V561D)
T28 construct: purchased Carna Biosciences
Description: as §1, §2

SRM = target: T29, SRM (Homo sapiens, UniProt Q9H3Y6)
T29 construct: purchased Carna Biosciences
Description: as §1, §2

PEK = target: T30, PEK (Homo sapiens, UniProt Q9NZJ5)
T30 construct: purchased Carna Biosciences
Description: as §1, §2

p38α = target: T31, p38α (Homo sapiens, UniProt Q16539)
T31 construct: purchased Carna Biosciences
Description: as §1, §2

FLT3 = target: T32, FLT3 (Homo sapiens, UniProt P36888)
T32 construct: purchased Carna Biosciences
Description: as §1, §2

SPHK2 = target: T33, SPHK2 (Homo sapiens, UniProt Q9NRA0)
T33 construct: purchased Carna Biosciences
Description: as §1, §2

JNK1 = target: T34, JNK1 (Homo sapiens, UniProt P45983)
T34 construct: purchased Carna Biosciences
Description: as §1, §2

ACK = target: T35, ACK (Homo sapiens, UniProt Q07912)
T35 construct: purchased Carna Biosciences
Description: as §1, §2

MLK3_Cascade = target: T36, MLK3_Cascade (Homo sapiens, UniProt Q16584)
T36 construct: purchased Carna Biosciences
Description: as §1, §2

T4 sequence (P19525 whole entry): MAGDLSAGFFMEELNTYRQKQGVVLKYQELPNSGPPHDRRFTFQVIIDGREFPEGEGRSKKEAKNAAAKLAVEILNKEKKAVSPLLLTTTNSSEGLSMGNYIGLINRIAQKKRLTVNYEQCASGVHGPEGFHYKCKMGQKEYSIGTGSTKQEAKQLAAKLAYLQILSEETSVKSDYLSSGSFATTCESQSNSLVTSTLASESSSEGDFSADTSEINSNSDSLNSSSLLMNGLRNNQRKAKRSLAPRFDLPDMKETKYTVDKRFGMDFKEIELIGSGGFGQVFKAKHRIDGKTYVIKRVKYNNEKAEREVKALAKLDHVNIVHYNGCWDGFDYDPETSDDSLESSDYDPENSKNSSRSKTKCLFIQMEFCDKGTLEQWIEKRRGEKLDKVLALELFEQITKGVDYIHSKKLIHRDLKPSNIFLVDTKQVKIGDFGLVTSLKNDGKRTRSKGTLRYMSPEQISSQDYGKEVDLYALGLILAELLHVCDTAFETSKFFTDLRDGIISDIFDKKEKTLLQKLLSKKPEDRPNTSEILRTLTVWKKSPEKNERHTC
T22 sequence (Q02750 whole entry): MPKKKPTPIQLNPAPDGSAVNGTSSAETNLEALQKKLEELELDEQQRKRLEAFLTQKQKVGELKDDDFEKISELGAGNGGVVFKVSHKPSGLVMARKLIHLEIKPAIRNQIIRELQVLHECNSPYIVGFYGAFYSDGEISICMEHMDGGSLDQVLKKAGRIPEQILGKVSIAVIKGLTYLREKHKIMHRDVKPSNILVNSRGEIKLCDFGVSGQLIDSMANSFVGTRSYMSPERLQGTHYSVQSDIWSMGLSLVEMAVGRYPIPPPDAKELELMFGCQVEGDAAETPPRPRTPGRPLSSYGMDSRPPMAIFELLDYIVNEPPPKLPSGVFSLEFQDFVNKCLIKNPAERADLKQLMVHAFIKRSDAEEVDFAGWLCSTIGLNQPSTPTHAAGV
T36 sequence (Q16584 whole entry): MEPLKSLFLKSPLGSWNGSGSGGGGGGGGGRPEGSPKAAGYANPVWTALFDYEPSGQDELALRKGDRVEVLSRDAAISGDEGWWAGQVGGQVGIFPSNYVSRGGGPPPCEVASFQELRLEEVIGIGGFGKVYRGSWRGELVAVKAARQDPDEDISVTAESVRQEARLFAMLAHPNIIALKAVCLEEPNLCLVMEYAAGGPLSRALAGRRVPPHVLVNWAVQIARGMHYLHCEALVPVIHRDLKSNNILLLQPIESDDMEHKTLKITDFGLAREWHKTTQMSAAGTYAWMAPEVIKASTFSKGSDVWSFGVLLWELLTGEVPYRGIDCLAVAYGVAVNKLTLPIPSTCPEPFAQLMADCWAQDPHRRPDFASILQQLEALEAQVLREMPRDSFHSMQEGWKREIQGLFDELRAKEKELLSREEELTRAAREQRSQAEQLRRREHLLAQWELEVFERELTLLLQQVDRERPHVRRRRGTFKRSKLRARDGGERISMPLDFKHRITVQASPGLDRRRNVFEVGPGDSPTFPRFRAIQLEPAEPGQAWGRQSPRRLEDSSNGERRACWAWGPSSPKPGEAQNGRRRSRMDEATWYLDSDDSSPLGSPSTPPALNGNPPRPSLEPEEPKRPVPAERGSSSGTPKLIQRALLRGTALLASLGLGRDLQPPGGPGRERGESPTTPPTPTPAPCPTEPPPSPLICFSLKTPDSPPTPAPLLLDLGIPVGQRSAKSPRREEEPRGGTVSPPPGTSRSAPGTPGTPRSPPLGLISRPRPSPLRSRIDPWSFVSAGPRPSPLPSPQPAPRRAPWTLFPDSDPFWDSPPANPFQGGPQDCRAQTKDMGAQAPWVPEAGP
T32 sequence (P36888 27-993): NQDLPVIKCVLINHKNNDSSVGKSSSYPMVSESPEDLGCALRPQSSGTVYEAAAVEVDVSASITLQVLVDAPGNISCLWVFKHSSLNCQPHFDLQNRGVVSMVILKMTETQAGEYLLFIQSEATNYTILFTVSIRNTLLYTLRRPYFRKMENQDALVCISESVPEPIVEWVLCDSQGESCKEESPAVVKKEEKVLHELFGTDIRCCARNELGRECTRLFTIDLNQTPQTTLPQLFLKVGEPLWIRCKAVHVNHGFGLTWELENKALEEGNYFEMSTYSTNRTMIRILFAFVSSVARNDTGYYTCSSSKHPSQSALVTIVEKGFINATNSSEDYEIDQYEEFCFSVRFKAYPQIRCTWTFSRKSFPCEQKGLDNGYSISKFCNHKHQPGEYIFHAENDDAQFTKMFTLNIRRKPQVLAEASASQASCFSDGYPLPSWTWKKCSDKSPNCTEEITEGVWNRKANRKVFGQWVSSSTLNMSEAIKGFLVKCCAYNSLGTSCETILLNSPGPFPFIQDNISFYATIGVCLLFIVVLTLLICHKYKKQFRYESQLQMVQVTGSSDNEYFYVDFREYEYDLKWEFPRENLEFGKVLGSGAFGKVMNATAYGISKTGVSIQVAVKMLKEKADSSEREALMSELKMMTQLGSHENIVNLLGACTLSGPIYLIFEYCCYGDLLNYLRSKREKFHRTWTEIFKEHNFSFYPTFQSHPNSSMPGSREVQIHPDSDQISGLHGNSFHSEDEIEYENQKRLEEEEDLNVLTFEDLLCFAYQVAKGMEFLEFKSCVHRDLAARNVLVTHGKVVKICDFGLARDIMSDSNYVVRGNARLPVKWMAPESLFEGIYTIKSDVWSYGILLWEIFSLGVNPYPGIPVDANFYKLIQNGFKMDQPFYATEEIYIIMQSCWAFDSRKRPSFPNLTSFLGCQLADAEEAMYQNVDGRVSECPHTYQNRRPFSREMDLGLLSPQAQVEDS
T16 sequence (P51813 whole entry): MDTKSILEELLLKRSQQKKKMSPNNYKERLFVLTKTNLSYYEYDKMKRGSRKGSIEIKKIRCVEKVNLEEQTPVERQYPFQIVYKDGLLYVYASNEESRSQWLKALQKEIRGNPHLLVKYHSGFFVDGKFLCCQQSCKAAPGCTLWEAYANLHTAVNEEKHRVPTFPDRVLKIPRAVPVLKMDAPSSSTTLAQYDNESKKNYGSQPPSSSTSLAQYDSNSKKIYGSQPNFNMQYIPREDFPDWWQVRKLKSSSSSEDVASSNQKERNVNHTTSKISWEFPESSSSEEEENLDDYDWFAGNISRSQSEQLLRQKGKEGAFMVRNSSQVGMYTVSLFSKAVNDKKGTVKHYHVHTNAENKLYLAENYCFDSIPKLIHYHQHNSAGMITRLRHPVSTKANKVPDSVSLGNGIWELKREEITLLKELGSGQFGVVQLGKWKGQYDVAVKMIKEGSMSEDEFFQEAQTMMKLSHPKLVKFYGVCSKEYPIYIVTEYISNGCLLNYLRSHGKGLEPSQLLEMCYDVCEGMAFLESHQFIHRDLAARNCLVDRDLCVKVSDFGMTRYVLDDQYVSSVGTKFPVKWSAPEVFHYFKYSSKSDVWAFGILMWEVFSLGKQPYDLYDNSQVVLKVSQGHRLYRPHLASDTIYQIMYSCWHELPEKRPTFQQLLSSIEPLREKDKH
T29 sequence (Q9H3Y6 whole entry): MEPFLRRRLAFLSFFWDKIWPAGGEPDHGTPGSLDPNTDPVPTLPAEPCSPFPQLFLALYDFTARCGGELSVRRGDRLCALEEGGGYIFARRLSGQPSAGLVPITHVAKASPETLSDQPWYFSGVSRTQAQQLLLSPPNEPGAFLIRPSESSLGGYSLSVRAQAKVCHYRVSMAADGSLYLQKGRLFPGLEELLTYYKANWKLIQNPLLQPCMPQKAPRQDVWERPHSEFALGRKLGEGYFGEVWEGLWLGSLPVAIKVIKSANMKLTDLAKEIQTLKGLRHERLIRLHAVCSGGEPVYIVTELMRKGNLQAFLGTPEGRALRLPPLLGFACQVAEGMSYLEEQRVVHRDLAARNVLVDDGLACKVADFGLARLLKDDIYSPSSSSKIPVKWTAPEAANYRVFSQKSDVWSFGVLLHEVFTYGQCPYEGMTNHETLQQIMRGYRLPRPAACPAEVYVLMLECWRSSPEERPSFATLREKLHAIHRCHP
T27 sequence (P57059 whole entry): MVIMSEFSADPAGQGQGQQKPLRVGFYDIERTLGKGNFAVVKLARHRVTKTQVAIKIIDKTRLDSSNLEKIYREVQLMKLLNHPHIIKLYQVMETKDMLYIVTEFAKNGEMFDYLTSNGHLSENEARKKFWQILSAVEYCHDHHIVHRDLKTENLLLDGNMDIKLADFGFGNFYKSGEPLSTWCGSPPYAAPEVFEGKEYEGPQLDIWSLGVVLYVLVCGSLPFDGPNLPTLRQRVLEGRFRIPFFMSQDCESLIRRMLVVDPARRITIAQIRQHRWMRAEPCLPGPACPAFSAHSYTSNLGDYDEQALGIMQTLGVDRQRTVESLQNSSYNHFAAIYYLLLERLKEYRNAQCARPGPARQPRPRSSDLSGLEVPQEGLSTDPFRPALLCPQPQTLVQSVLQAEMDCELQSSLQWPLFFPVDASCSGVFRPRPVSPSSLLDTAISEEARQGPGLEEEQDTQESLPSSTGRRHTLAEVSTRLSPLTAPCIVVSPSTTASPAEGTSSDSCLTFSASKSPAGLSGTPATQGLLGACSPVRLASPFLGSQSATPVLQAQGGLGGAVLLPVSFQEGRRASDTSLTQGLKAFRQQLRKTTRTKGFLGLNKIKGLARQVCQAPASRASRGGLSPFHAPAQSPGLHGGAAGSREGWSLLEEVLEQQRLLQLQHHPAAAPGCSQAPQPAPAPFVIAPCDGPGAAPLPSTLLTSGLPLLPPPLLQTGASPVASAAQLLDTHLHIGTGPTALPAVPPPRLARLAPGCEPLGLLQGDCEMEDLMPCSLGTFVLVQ
T10 sequence (P46734 whole entry): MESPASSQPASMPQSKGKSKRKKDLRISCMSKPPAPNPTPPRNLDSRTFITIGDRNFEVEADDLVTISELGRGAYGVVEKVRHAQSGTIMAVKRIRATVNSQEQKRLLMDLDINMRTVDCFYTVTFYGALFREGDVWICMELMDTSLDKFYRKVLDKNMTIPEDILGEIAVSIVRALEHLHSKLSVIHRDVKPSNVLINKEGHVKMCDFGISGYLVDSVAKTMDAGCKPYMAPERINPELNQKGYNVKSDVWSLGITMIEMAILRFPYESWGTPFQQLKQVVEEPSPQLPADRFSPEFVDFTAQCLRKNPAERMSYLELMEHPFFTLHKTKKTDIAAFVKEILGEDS

With `[H]/N=C1/NC(=O)C(=Cc2ccc3c(c2)CCO3)S1` [CaNDY, (Z)-5-[(2,3-dihydrobenzofuran-5-yl)methylene]-2-iminothiazolidin-4-one] the remaining activity at 1 µM (ABL(T315I)) was 97%, the remaining activity at 1 µM (NEK9) was 91.6% and the remaining activity at 1 µM (CDK7/CycH/MAT1) was 93.6%. For the same compound, the “%Activity” value (PKR) was 95.4%, the “%Activity” value (EPHB2) was 99.8% and the remaining activity at 1 µM (PASK) was 65.1%. For the same compound, the remaining activity at 1 µM (MARK2) was 97.5%, the “%Activity” value (CSK) was 99.7% and the remaining activity at 1 µM (KIT) was 99.3%. It also gave a remaining activity at 1 µM (MAP2K3_Cascade) of 101%, a remaining activity at 1 µM (PKCι) of 101% and a remaining activity at 1 µM (CaMK2δ) of 89.6%. The “%Activity” value (CK1γ3) was 79.0%, the remaining activity at 1 µM (MAPKAPK2) was 100% and the remaining activity at 1 µM (BRSK1) was 97.3%. For the same compound, the remaining activity at 1 µM (BMX) was 100%, the “%Activity” value (MET(Y1235D)) was 99.0% and the remaining activity at 1 µM (IGF1R) was 101%. It also gave a remaining activity at 1 µM (PKN1) of 74.6%, a remaining activity at 1 µM (FES) of 109% and a remaining activity at 1 µM (AXL) of 103%. The remaining activity at 1 µM (MAP2K1_Cascade) was 99.3%, the remaining activity at 1 µM (HER4) was 111% and the remaining activity at 1 µM (RSK2) was 91.1%. For the same compound, the remaining activity at 1 µM (EPHA1) was 95.5%, the “%Activity” value (NuaK1) was 98.1% and the “%Activity” value (SIK) was 99.9%. For the same compound, the remaining activity at 1 µM (PDGFRα(V561D)) was 90.3%, the remaining activity at 1 µM (SRM) was 77% and the remaining activity at 1 µM (PEK) was 90.4%. For the same compound, the “%Activity” value (p38α) was 95.9%, the remaining activity at 1 µM (FLT3) was 101% and the remaining activity at 1 µM (SPHK2) was 92.3%. The “%Activity” value (JNK1) was 102.4%, the remaining activity at 1 µM (ACK) was 108% and the “%Activity” value (MLK3_Cascade) was 100.9%.
